Measurements from patent US11780851B2, “LRRK2 inhibitors” (H. Lundbeck A/S, priority 2021, dated 2023).

What was measured:
[1] = biological target: T1, LRRK2 G2019S (Homo sapiens, UniProt Q5S007, G2019S); experiment: LRRK2 G2019S kinase activity assay (LanthaScreen TR-FRET); format: biochemical; conditions: 250 pM LRRK2 G2019S, 1.3 mM ATP, 3 h at 30° C.; n≥2 tests
T1 construct: purchased Invitrogen (Life Technologies Corporation)
Experimental: (§1) LRRK2 kinase activity was measured using a LanthaScreen kinase activity assay available from Invitrogen (Life Technologies Corporation). The assay is a homogeneous time resolved-fluorescence resonance energy transfer (TR-FRET) assay that measures phosphorylation of a fluorescein-labelled peptide substrate Fluorescein-ERM LRRKtide obtainable from Life Technologies Corporation as a result of LRRK2 kinase activity. The phosphorylated peptide is recognized by a terbium-labelled phospho-specific anti-LRRKtide antibody (pLRRKtide antibody), obtainable from Life Technologies Corporation and, subsequently, the phosphorylated LRRKtide can be quantified by the extent of TR-FRET between the terbium donor and fluorescein acceptor. The LRRK2 kinase was obtained from Invitrogen (Life Technologies Corporation) and comprises residue 970 to 2527 of the full length human wild-type LRRK2 kinase, or a similar sequence with the G2019S mutation. As discussed above, this mutation increases the kinase activity relative to the wild type. The kinase reactions were performed in a 20 μL volume in 384-well plates. […] The mixture was further incubated for 30 minutes at RT. […] The measurement was repeated 30 times for fluorescein and 30 times for terbium emission with a 1000 μs time window between repeats. TR-FRET measurements were performed on a Biotek Synergy plate. The TR-FRET signal was calculated as the emission-ratio at 520 nm over 495 nm. The TR-FRET ratio readout for test compounds was normalized to 0% inhibition corresponding to TR-FRET ratio measured in control wells with no inhibition of the kinase activity and 100% inhibition corresponding to TR-FRET ratio measured in control wells with inhibitor. […] C is the IC50 value and D is the Hill slope coefficient. IC50 estimates were obtained from independent experiment and the logarithmic average was calculated.

[2] = biological target: T2, LRRK2 WT (Homo sapiens, UniProt Q5S007); experiment: LRRK2 wild-type kinase activity assay (LanthaScreen TR-FRET); format: biochemical; conditions: 1 nM LRRK2 WT, 1.3 mM ATP, 3.5 h at 30° C.; n≥2 tests
T2 construct: comprises residue 970 to 2527 of the full length human wild-type LRRK2 kinase; purchased Invitrogen (Life Technologies Corporation)
Experimental: as §1

T1 sequence (Q5S007 970-2527 G2019S): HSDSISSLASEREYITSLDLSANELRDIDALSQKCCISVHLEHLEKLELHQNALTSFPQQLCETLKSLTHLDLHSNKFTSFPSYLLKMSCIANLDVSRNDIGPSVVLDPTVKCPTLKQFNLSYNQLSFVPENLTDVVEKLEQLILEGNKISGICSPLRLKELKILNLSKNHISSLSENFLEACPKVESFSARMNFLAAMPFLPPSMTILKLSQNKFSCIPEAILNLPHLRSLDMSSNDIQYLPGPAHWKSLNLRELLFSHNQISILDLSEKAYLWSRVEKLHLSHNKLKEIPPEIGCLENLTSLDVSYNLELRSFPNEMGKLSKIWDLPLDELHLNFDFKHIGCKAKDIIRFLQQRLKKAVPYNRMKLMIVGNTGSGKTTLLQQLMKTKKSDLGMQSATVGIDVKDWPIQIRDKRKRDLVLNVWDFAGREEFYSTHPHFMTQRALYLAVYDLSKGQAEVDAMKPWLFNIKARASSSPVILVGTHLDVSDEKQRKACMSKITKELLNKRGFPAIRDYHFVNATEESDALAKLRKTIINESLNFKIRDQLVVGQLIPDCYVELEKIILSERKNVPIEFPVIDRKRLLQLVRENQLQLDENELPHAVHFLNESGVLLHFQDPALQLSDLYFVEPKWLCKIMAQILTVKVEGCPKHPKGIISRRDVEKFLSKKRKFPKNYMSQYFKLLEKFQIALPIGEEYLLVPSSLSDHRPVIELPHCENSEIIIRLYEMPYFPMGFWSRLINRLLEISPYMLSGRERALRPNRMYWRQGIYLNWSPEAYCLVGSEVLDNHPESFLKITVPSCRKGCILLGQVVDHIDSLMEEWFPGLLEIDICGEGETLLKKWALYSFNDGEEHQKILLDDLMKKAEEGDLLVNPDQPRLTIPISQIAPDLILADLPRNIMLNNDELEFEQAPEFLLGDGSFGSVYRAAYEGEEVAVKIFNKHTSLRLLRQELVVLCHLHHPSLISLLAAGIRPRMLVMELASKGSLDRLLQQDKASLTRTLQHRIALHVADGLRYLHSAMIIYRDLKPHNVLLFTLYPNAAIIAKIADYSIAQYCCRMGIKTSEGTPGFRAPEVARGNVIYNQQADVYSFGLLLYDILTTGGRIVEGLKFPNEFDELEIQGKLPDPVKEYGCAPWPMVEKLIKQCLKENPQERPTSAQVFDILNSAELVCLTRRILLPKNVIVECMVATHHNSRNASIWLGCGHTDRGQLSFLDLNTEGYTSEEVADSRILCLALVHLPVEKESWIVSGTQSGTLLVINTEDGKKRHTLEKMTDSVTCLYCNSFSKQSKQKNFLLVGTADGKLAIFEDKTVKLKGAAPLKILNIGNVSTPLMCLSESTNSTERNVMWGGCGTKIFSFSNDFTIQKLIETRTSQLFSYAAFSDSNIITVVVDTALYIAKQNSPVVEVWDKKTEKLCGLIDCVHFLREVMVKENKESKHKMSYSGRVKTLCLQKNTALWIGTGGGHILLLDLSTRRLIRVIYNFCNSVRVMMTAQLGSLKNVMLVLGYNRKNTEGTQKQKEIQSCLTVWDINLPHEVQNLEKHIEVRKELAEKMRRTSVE
T2 sequence (Q5S007 970-2527): as the sequence (Q5S007 970-2527 G2019S) above, with S1050G counted along it

Compound	IC50 [1] [nM]	IC50 [2] [nM]
CCc1c2c(nn1[C@@H]1CCOC[C@H]1F)OCCCn1nc(Cl)c3cnc(nc31)N2 (single isomer, unassigned) [Example 55, (+)-8-Chloro-3-ethyl-2-((3R,4S) or (3S,4R)-3-fluorotetrahydro-2H-pyran-4-yl)-2,4,12,13-tetrahydro-11H-5,7-(azenometheno)dipyrazolo[3,4-b:5′,1′-g][1]oxa[4,6,8]triazacycloundecine]	1.5	5.6
CCc1c2c(nn1[C@@H]1CCOC[C@H]1F)OCCCn1nc(Cl)c3cnc(nc31)N2 (single isomer, unassigned) [Example 56, (−)-8-Chloro-3-ethyl-2-((3R,4S) or (3S,4R)-3-fluorotetrahydro-2H-pyran-4-yl)-2,4,12,13-tetrahydro-11H-5,7-(azenometheno)dipyrazolo[3,4-b:5′,1′-g][1]oxa[4,6,8]triazacycloundecine]	2	4.9
[2H]C([2H])([2H])c1c2c(nn1[C@@H]1CCOC[C@H]1F)OCCCn1nc(Cl)c3cnc(nc31)N2 (single isomer, unassigned) [Example 63, (+)-8-Chloro-2-((3R,4S) or (3S,4R)-3-fluorotetrahydro-2H-pyran-4-yl)-3-(methyl-d3)-2,4,12,13-tetrahydro-11H-5,7-(azenometheno)dipyrazolo[3,4-b:5′,1′-g][1]oxa[4,6,8]triazacycloundecine]	4	11
[2H]C([2H])([2H])c1c2c(nn1[C@H]1CCOC3(CC3)C1)OCCCn1nc(Cl)c3cnc(nc31)N2 (single isomer, unassigned) [Example 64, (−)-(R) or (S)-8-Chloro-3-(methyl-d3)-2-(4-oxaspiro[2.5]octan-7-yl)-2,4,12,13-tetrahydro-11H-5,7-(azenometheno)dipyrazolo[3,4-b:5′,1′-g][1]oxa[4,6,8]triazacycloundecine]	5	11
[2H]C([2H])([2H])c1c2c(nn1[C@H]1CCOC3(CC3)C1)OCCCn1nc(Cl)c3cnc(nc31)N2 (single isomer, unassigned) [Example 65, (+)-(R) or (S)-8-Chloro-3-(methyl-d3)-2-(4-oxaspiro[2.5]octan-7-yl)-2,4,12,13-tetrahydro-11H-5,7-(azenometheno)dipyrazolo[3,4-b:5′,1′-g][1]oxa[4,6,8]triazacycloundecine]	1.7	4.8
Cc1c2c(nn1C)OCCCn1nc(Cl)c3cnc(nc31)N2 [Example 1, 8-Chloro-2,3-dimethyl-2,4,12,13-tetrahydro-11H-5,7-(azenometheno)dipyrazolo[3,4-b:5′,1′-g][1]oxa[4,6,8]triazacycloundecine]	18	55
Cc1nn2c3nc(ncc13)Nc1c(nn(C3CCOCC3)c1C)OCCC2 [Example 8, 3,8-Dimethyl-2-(tetrahydro-2H-pyran-4-yl)-2,4,12,13-tetrahydro-11H-5,7-(azenometheno)dipyrazolo[3,4-b:5′,1′-g][1]oxa[4,6,8]triazacycloundecine]	21	93
Cc1c2c(nn1C1CCOCC1)OCCCn1nc(C#N)c3cnc(nc31)N2 [Example 9, 3-Methyl-2-(tetrahydro-2H-pyran-4-yl)-2,4,12,13-tetrahydro-11H-5,7-(azenometheno)dipyrazolo[3,4-b:5′,1′-g][1]oxa[4,6,8]triazacycloundecine-8-carbonitrile]	57	110
Cc1c2c(nn1CC13CC(CO1)C3)OCCCn1nc(Cl)c3cnc(nc31)N2 [Example 11, 2-((2-Oxabicyclo[2.1.1]hexan-1-yl)methyl)-8-chloro-3-methyl-2,4,12,13-tetrahydro-11H-5,7-(azenometheno)dipyrazolo[3,4-b:5′,1′-g][1]oxa[4,6,8]triazacycloundecine]	4.6	14
Cc1c2c(nn1C1CCC(F)(F)CC1)OCCCn1nc(Cl)c3cnc(nc31)N2 [Example 26, 8-Chloro-2-(4,4-difluorocyclohexyl)-3-methyl-2,4,12,13-tetrahydro-11H-5,7-(azenometheno)dipyrazolo[3,4-b:5′,1′-g][1]oxa[4,6,8]triazacycloundecine]	5.9	21
Cc1c2c(nn1C1(C#N)CC1)OCCCn1nc(Cl)c3cnc(nc31)N2 [Example 36, 1-(8-Chloro-3-methyl-12,13-dihydro-11H-5,7-(azenometheno)dipyrazolo[3,4-b:5′,1′-g][1]oxa[4,6,8]triazacycloundecin-2(4H)-yl)cyclopropane-1-carbonitrile]	7.2	23

Second part, the compound after the results:

IC50 [1] [nM]	IC50 [2] [nM]	Compound
0.88	2.6	Cc1c2c(nn1[C@@H]1CCOC3(CC3)C1)OCCCn1nc(Cl)c3cnc(nc31)N2 (single isomer, unassigned) [Example 54, (−)-(R) or (S)-8-Chloro-3-methyl-2-(4-oxaspiro[2.5]octan-7-yl)-2,4,12,13-tetrahydro-11H-5,7-(azenometheno)dipyrazolo[3,4-b:5′,1′-g][1]oxa[4,6,8]triazacycloundecine]
16	60	FC1(c2c3c(nn2C2CCOCC2)OCCCn2nc(Cl)c4cnc(nc42)N3)CC1 [Example 16, 8-Chloro-3-(1-fluorocyclopropyl)-2-(tetrahydro-2H-pyran-4-yl)-2,4,12,13-tetrahydro-11H-5,7-(azenometheno)dipyrazolo[3,4-b:5′,1′-g][1]oxa[4,6,8]triazacycloundecine]
5.1	14	[2H]C1([2H])Oc2nn(C3CCOCC3)c(C)c2Nc2ncc3c(Cl)nn(c3n2)C([2H])([2H])C1([2H])[2H] [Example 20, 8-Chloro-3-methyl-2-(tetrahydro-2H-pyran-4-yl)-2,4,12,13-tetrahydro-11H-5,7-(azenometheno)dipyrazolo[3,4-b:5′,1′-g][1]oxa[4,6,8]triazacycloundecine-11,11,12,12,13,13-d6]
5.7	18	Cc1c2c(nn1C1CC3(COC3)C1)OCCCn1nc(Cl)c3cnc(nc31)N2 [Example 34, 8-Chloro-3-methyl-2-(2-oxaspiro[3.3]heptan-6-yl)-2,4,12,13-tetrahydro-11H-5,7-(azenometheno)dipyrazolo[3,4-b:5′,1′-g][1]oxa[4,6,8]triazacycloundecine]
5.3	15	[2H]C([2H])([2H])c1c2c(nn1C1CCOCC1)OC([2H])([2H])C([2H])([2H])C([2H])([2H])n1nc(Cl)c3cnc(nc31)N2 [Example 35, 8-Chloro-3-(methyl-d3)-2-(tetrahydro-2H-pyran-4-yl)-2,4,12,13-tetrahydro-11H-5,7-(azenometheno)dipyrazolo[3,4-b:5′,1′-g][1]oxa[4,6,8]triazacycloundecine-11,11,12,12,13,13-d6]
3.6	13	[2H]C1([2H])CCOc2nn(C3CCOCC3)c(C)c2Nc2ncc3c(Cl)nn1c3n2 [Example 45, 8-Chloro-3-methyl-2-(tetrahydro-2H-pyran-4-yl)-2,4,12,13-tetrahydro-11H-5,7-(azenometheno)dipyrazolo[3,4-b:5′,1′-g][1]oxa[4,6,8]triazacycloundecine-11,11-d2]
3.1	12	[2H]C1([2H])CCn2nc(Cl)c3cnc(nc32)Nc2c(nn(C3CCOCC3)c2C)O1 [Example 46, 8-Chloro-3-methyl-2-(tetrahydro-2H-pyran-4-yl)-2,4,12,13-tetrahydro-11H-5,7-(azenometheno)dipyrazolo[3,4-b:5′,1′-g][1]oxa[4,6,8]triazacycloundecine-13,13-d2]
